Measurements published in patent US8404706B2, “Opioid and opioid-like compounds and uses thereof” (Jenken Biosciences, Inc., priority 2002, dated 2013).

Key:
σ1 = σ1 (Homo sapiens, UniProt Q99720); details: cited from earlier work; for Ki: read-out: Ki (σ1-ligands)
SGPT = test: Serum glutamic pyrate transaminase (SGPT) in LPS-treated rats; type: in vivo; details: for SGPT, LPS + Compound / SGPT % Inhibition: 6 h after LPS
Procedure: (§1) Wistar-Kyoto (WKY) rats were anesthetized by intraperitoneal injection of urethane (1.2 g/kg). The trachea was cannulated to facilitate respiration and environmental temperature was maintained at 24° C. with an air-conditioning system. […] The left jugular vein was cannulated for the administration of drugs. Upon completion of the surgical procedure, cardiovascular parameters were allowed to stabilize for 30 min. After recording baseline hemodynamic parameters, animals were given norepinephrine [NE, 1 μg/kg intravenously (i.v.)], and 10 min later animals received vehicle (saline) or Escherichia coli lipopolysaccharide (LPS), 5-10 mg/kg, i.v. and were monitored for 360 min. The pressor responses to NE were reassessed every hour after vehicle or LPS injection. Prior to (i.e., at time 0) and every hour after vehicle or LPS, 0.5 mL of blood was taken to measure the changes in cytokine tumor necrosis factor-α (TNF-α), interleukin-10β (IL-10), and nitrate (an indicator of NO) (Yen, M. H. et al., Shock 14, 60-67, 2000). Any blood withdrawn was immediately replaced by the injection of an equal volume of saline (i.v.) in order to maintain the blood volume. The drug was administered i.v. 30 min. prior to and 30 min. after the injection of LPS. All hemodynamic and biochemical parameters were recorded for 6 hours in all animal groups.
(§2) 10 μl of serum was taken out at 0 and 6 hr intervals and were added to slides of GOP and GTP and then placed in DRI-CHEM 3000 (Colorige Tric Analyzer; FUJIFILM; Tokyo, Japan.
(§3) Compounds, XXV and XXVI (shown below), were tested according to the foregoing protocols. In the following tables, XXV or XXVI (5 mg/Kg, iv) was injected 30 min before LPS treatment (10 mg/Kg, iv) unless otherwise indicated. In all experiments, at least six rats were tested. All measurements were performed 6 h after LPS injection unless otherwise indicated. The inhibitory effects of the compounds tested were described as a percentage of protection or inhibition with respect to the change in LPS-treated animals as compared to the control animals.

Superoxide = Superoxide in LPS-treated rats; type: in vivo; details: 6 h after LPS
Procedure: as §3

Creatinine = test: Plasma creatinine in LPS-treated rats; type: in vivo; details: 5 mg/Kg iv 30 min before LPS (10 mg/Kg iv); 6 h after LPS
Procedure: as §1, with “Any blood withdrawn was immediately replaced by the injection of an equal volume of saline (i.v.) in order to maintain the blood volume. The drug was administered i.v. 30 min. prior to and 30 min. after the injection of LPS.” left out
(§4) BUN and Creatinine levels were measured at 0 and 6 hr after injection of saline or LPS by “DRI-Chemical slide” (Fujifilm Co., dropping 10 μL plasma onto the slide with micropipette). […]

SGOT = test: Serum glutamic oxaloacetic transaminase (SGOT) in LPS-treated rats; type: in vivo; details: for SGOT % Inhibition / SGOT, LPS + Compound: 6 h after LPS
Procedure: as §1, §2, §3

[1] = test system: lung tissues of rats receiving lipopolysaccharide (LPS); test: Histological study of lung tissue after LPS
Description: Lungs and livers were obtained from surviving mice in each group after the survival study and these tissues were fixed in Carson-Millonig's solution for histopathological examination as described previously in Chen, A. et al. Lab. […] The fixed lung and liver tissues were dehydrated in graded ethanol and embedded in paraffin. Three-micron sections were stained with the hematoxylin and eosin reagent for light microscopy. […] This histological alteration was quantitatively analyzed as an index on the severity of tissue injury. This index was a neutrophil infiltration index which was determined by counting the numbers of neutrophils in 10 randomly selected high power fields. The index was expressed as the mean of these 10 numbers±standard error of the mean (SEM)/high power field.

[2] = test system: nitrate (an indicator of NO); test: Plasma nitrate in LPS-treated rats; type: in vivo, Wistar-Kyoto (WKY) rats; details: 5 mg/Kg iv 30 min before LPS (10 mg/Kg iv); 6 h after LPS
Procedure: as §1, with “Prior to (i.e., at time 0) and every hour after vehicle or LPS, 0.5 mL of blood was taken to measure the changes in cytokine tumor necrosis factor-α (TNF-α), interleukin-10β (IL-10), and nitrate (an indicator of NO) (Yen, M. H. et al., Shock 14, 60-67, 2000). Any blood withdrawn was immediately replaced by the injection of an equal volume of saline (i.v.) in order to maintain the blood volume. The drug was administered i.v. 30 min. prior to and 30 min. after the injection of LPS.” left out
Fifty microliters of plasma previously kept in −20° C. freezer was thawed and de-proteinized by incubating with 95% ethanol (4° C.) for 30 min. […] The amounts of nitrate in the plasma ([…]) were measured by adding a reducing agent (0-8% VCl3 in 1N HCl) to the purge vessel to convert nitrate to NO, which was stripped from the plasma by using a helium gas purge. […] Nitrate concentrations were calculated by comparison with standard solutions of sodium nitrate (Sigma Chemical Co., St. Louis, Mo.). […]

Blood urea nitrogen = Blood urea nitrogen (BUN) in LPS-treated rats; type: in vivo; details: 5 mg/Kg iv 30 min before LPS (10 mg/Kg iv); 6 h after LPS
Procedure: as §1, with “Any blood withdrawn was immediately replaced by the injection of an equal volume of saline (i.v.) in order to maintain the blood volume. The drug was administered i.v. 30 min. prior to and 30 min. after the injection of LPS.” left out
as §4

[3] = test system: rats treated with lipopolysaccharide (LPS); test: Heart rate in LPS-treated rats; type: in vivo, Wistar-Kyoto (WKY) rats; details: 5 mg/Kg iv 30 min before LPS (10 mg/Kg iv); 6 h after LPS
Procedure: as §1, §3

TNF-α = test: Plasma TNF-α (ELISA) in LPS-treated rats; type: in vivo, Wistar-Kyoto (WKY) rats; details: 5 mg/Kg iv 30 min before LPS (10 mg/Kg iv); measurement taken at 2 h
Procedure: as §1
Blood samples (0.3 mL) for the measurement of TNF-α level in the plasma were obtained at 0, 60, 120, 180, and 360 min. after the injection of saline or LPS. At 60 and 360 min. after the injection of saline or LPS, the volume of blood sample taken from the animals was 0.5 mL instead of 0.3 mL for performing the measurement of IL-10 in addition to TNF-α. These samples were collected from a catheter placed in the carotid artery and were centrifuged at 7200 g for 3 min. to obtain the plasma for measuring the levels of TNF-α, IL-10, and nitrate (as described below). The plasma samples (100 μL) were diluted 1:2, and TNF-α was measured in duplicate with an enzyme-linked immunoadsorbent assay (ELISA) kit (Genzyme Co., Cambridge, Mass.), and the amounts of IL-10 in the plasma (100 μL) were measured by ELISA kit (Endogen Inc., Boston, Mass.), as described previously (Yen, M. H. et al.: Biochem. Biophys. Res. Commun. 228:459-466 (1996)).
Compounds, XXV and XXVI (shown below), were tested according to the foregoing protocols. In the following tables, XXV or XXVI (5 mg/Kg, iv) was injected 30 min before LPS treatment (10 mg/Kg, iv) unless otherwise indicated. In all experiments, at least six rats were tested. All measurements were performed 6 h after LPS injection unless otherwise indicated. […]

[4] = test system: rats treated with lipopolysaccharide (LPS); test: Mean arterial blood pressure (MAP) in LPS-treated rats; type: in vivo, Wistar-Kyoto (WKY) rats; details: 5 mg/Kg iv 30 min before LPS (10 mg/Kg iv); 6 h after LPS
Procedure: as §1, §3

[5] = test system: ICR mice injected with LPS; test: Survival study after LPS; type: in vivo
Procedure: Survival studies were performed in ICR mice (28-35 g), whose stock originated from the Institute of Cancer Research of National Institute of Health in U.S.A. They were purchased from the National Animal Center (Taipei, R.O.C., Taiwan). LPS [60 mg/kg intraperitoneally (i.p.)] was injected in the presence of vehicle or drugs and survival was monitored every 6 hours until 36 hours, Different groups of animals received vehicle (saline) together with LPS (n=20) or LPS plus compounds (2.5 mg/kg at time 0 and 6 hours after LPS, n=20).
All values in the figures and text are expressed as mean. SEM of n observations, where n represents the number of animals studied. Statistical evaluation was performed by using analysis of variance (ANOVA) followed by a multiple comparison test (Scheffe's test), the IL-10 level and the neutrophil infiltration index which were analyzed by unpaired Student's t test. The chi-square test was used for determining the significant differences in the survival rate between control and drug-treated groups. A P value of less than 0.05 was considered to be statistically significant.

[6] = 5 mg/Kg iv 30 min before LPS (10 mg/Kg iv)
[7] = 5 mg/Kg iv 30 min before LPS (10 mg/Kg iv), XXVI value not statistically significant
[8] = 6 hours after LPS, pretreatment (30 min before LPS; 5, 10 mg/kg) and post-treatment (30 min after LPS; 10 mg/kg), p<0.05

Sequence of σ1 (Q99720 whole entry): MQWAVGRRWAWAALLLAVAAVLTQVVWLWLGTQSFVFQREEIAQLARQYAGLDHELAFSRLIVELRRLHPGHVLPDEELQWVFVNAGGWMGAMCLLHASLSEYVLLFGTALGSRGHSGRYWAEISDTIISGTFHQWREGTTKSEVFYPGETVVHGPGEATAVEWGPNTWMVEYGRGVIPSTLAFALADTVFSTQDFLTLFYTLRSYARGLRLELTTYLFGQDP

Br.C=CCN1CC[C@]23CCCC[C@H]2[C@H]1Cc1ccc(OC)cc13
melting point: 190 to 192 °C

Br.COc1ccc2c(c1)[C@@]13CCCC[C@H]1[C@@H](C2)N(Cc1ccccc1)CC3
melting point: 185 to 186 °C

Br.COc1ccc2c(c1)[C@@]13CCCC[C@H]1[C@@H](C2)N(Cc1ccc(F)cc1)CC3
melting point: 226 to 228 °C

C=CCN1CCC2(C)c3cc(O)ccc3CC1C2C (stereo not shown) [N-allylnormetazocine]
affinity at σ1 (σ1): relatively poor affinity
σ1/σ2 ratio (σ1; selectivity ratio): < 100

C=CCCCCN1CCC2(C)c3cc(O)ccc3CC1C2C (stereo not shown) [N-hex-5-enyl]
Ki (σ1): 1 nM
σ2/σ1 (σ1; selectivity ratio): 750

C=CCCCN1CCC2(C)c3cc(O)ccc3CC1C2C (stereo not shown) [N-pent-4-enyl]
Ki (σ1): 2 nM
σ2/σ1 (σ1; selectivity ratio): 1250

COc1ccc2c(c1)[C@]13CCCCC1[C@H](C2)N(C)CC3 (stereo partly shown) [XXVI]
SGPT, LPS + Compound (SGPT; [6]): 36 U/L
SGPT % Inhibition (SGPT; [7]): 100^3%
Superoxide % Inhibition (Superoxide; [6]): 68%
Superoxide, LPS + Compound (Superoxide; [6]): 8200 relative units
Creatinine % of Inhibition (Creatinine): 60%
Creatinine, LPS + Compound (Creatinine): 0.40 mg/dL
SGOT % Inhibition (SGOT; [6]): 53%
SGOT, LPS + Compound (SGOT; [6]): 158 U/L
Lung tissue morphology after compound alone ([1]; injections of compound alone, no LPS, n=2, FIG. 5 (400×) and FIG. 6 (40×)): morphologically relatively normal lung tissues
PMN infiltration in lung caused by LPS ([1]; pretreatment with compound, high power (400×) light microscope, FIG. 5): improved
Thickness of alveolar wall with interstitial congestion and edema caused by LPS ([1]; pretreatment with compound, low power (40×) light microscope, FIG. 6): improved
Nitrate % Inhibition [2]: 75%
Nitrate, LPS + Compound [2]: 75 µM
Blood urine nitrogen % of Inhibition (Blood urea nitrogen): 47%
Blood urine nitrogen, LPS + Compound (Blood urea nitrogen): 45 mg/dL
Heart Rate % Protection [3]: 36%
Heart Rate, LPS + Compound [3]: 420 beats/min
TNF-α % Inhibition (TNF-α): 74%
TNF-α, LPS + Compound (TNF-α): 510 ng/mL
MAP % Protection [4]: 100%
MAP, LPS + Compound [4]: 105 mmHg
% of Protection (survival at 14 h) ([5]; 14 h after LPS): 100%
% of Survival at 14 h, LPS + Compound ([5]; 14 h after LPS, method: LPS 60 mg/kg i.p., compound 2.5 mg/kg at 0 and 6 h): 100%
% of Protection (survival at 18 h) ([5]; 18 h after LPS): 40%
% of Survival at 18 h, LPS + Compound ([5]; 18 h after LPS, method: LPS 60 mg/kg i.p., compound 2.5 mg/kg at 0 and 6 h): 40%

O=C1CC[C@@]2(O)[C@@H]3Cc4ccc(O)c5c4C2(CCN3CC2CC2)[C@H]1O5 [XXV]
SGPT, LPS + Compound (SGPT; [6]): 61.6 U/L
SGPT % Inhibition (SGPT; [7]): 78%
Effect on SGTP after LPS (SGPT; [8]): significant decrease
SGPT % Inhibition (SGPT; Post-treatment with 10 mg/Kg): 82%
SGPT, LPS + Compound (SGPT; Post-treatment with 10 mg/Kg): 59.6 U/L
SGPT % Inhibition (SGPT; Pretreatment with 10 mg/Kg): 94%
SGPT, LPS + Compound (SGPT; Pretreatment with 10 mg/Kg): 53.8 U/L
Superoxide % Inhibition (Superoxide; Post-treatment with 10 mg/Kg): 69%
Superoxide, LPS + Compound (Superoxide; Post-treatment with 10 mg/Kg): 15720 relative units
Superoxide % Inhibition (Superoxide; Pretreatment with 10 mg/Kg): 85%
Superoxide, LPS + Compound (Superoxide; Pretreatment with 10 mg/Kg): 11866 relative units
SGOT % Inhibition (SGOT; [6]): 60%
SGOT, LPS + Compound (SGOT; [6]): 192 U/L
Effect on SGOT after LPS (SGOT; [8]): significant decrease
SGOT % Inhibition (SGOT; Post-treatment with 10 mg/Kg): 76%
SGOT, LPS + Compound (SGOT; Post-treatment with 10 mg/Kg): 192 U/L
SGOT % Inhibition (SGOT; Pretreatment with 10 mg/Kg): 94%
SGOT, LPS + Compound (SGOT; Pretreatment with 10 mg/Kg): 192 U/L
Heart Rate % Protection [3]: >90%
Heart Rate, LPS + Compound [3]: 410 beats/min
TNF-α % Inhibition (TNF-α): 50%
TNF-α, LPS + Compound (TNF-α): 180 ng/mL
MAP % Protection [4]: 33%
MAP, LPS + Compound [4]: 80 mmHg
